Tests used:
[1] = tested on: advanced or metastatic adenocarcinoma of the pancreas; settings: first-line therapy; P=0.003; cited from earlier work
pancreatic cancer = settings: human, in vivo; cited from earlier work
[2] = tested on: locally advanced or metastatic pancreatic cancer; test: Phase 2b study of Kanglaite Injection plus gemcitabine vs gemcitabine alone; assay type: in vivo
From the text: Efficacy of the treatment may be monitored, for example, by CT scans of the patients to determine growth or progression of the tumor, or Karnofsky performance. The Karnofsky Performance Scale Index allows patients to be classified on a scale of 0 to 100 as to their functional impairment, with zero indicating death and 100 indicating no patient complaints and no evidence of disease. The primary efficacy outcome measure for the efficacy trial described in Example 2 was Progression Free Survival (PFS). PFS includes patient deaths and assumes that death is related to progression of cancer, a reasonable assumption with pancreatic cancer. PFS is defined as the time interval from randomization to objective tumor progression or death.
As shown in Example 2, efficacy of the treatment was evaluated in part using RECIST 1.1 RECIST refers to the Response Evaluation Criteria for Solid Tumors assessment tool an involves measuring tumors (lesions) in patient using, for example, CT or MRI. As noted above, RECIST Version 1.1 was utilized in evaluating patient responses.
A phase 2b, multi-center, randomized, open-label clinical trial compared the effect of gemcitabine in combination with KLTi to gemcitabine alone in patients with locally advanced or metastatic pancreatic cancer, not amenable to curative surgical resection.
A total of 41 patients were randomized to Cohort 1 with 38 included in the safety population, specifying all patients who received at least one dose of study drug. Thirty-seven of the 38 patients had been diagnosed as having Stage IV pancreatic cancer. Twenty-six patients were assigned to Group 1 to receive both KLTi and gemcitabine while 12 patients were assigned to Group 2 to receive only gemcitabine.
All patients received marketed gemcitabine, which was administered at 1000 mg/m^2 over a minimum of 30 min and a maximum of 38 min once weekly for 3 weeks, followed by a rest period of 13 days before the next gemcitabine dose. Based on a chemotherapy cycle of 28 days (4 weeks), gemcitabine was given on Days 1, 8, and 15 of the 28-day cycle. For patients in Group 1, KLTi infusion was administered on each of Days 1-5 for each of those same 3 weeks (i.e., Days 1-5, Days 8-12 and Days 15-19). Patients were then rested for the remaining 9 days of the cycle (Days 20-28).
Dosing of Group 1 patients included administration of KLTi at a dose of 30 g/day provided as a 300 mL volume. For the first 2 KLTi infusions for each patient, the infusion rate was started at 1.0 mL/min for the first 15 min, and then increased to 150 mL/hr until the KLTi was completely infused if no safety issues were apparent. Once safety was established in the first 2 infusions, all subsequent KLTi infusions were given at a target rate of 150 m L/hr. Beginning with cycle 2, the target rate of infusion may, however, have been increased to […]. The total infusion time for 300 mL of KLTi was therefore expected to be approximately 2 hr for Cycle 1 and approximately 90 min for all remaining cycles.
Progression Free Survival (PFS) was calculated from the date of randomization to the date of objective disease progression or death. Patients without objective disease progression or death were censored at their last evaluable tumor assessment. […] This significant increase in PFS in Group 1 as compared to Group 2 is indicative of the significant advantage of administering KLTi in combination to gemcidabine as compared to administering gemcidabine alone to treat pancreatic cancer.

[3] = tested on: advanced or metastatic pancreatic carcinomas; settings: erlotinib versus placebo, with gemcitabine; cited from earlier work
[4] = tested on: metastatic pancreatic adenocarcinoma; settings: not previously treated with chemotherapy; cited from earlier work
[5] = RECIST 1.1, Efficacy Evaluable Population, n (%)
[6] = RECIST 1.1, Intent To Treat Population, n (%)

Structure (SMILES)	1-year survival [1]	alive at the end of the first year (pancreatic cancer)	PFS Rate 1 month ([2]; 1 month)	PFS Rate 1 year ([2]; 1 year)	PFS Rate 3 months ([2]; 3 months)	PFS Rate 4 months ([2]; 4 months)	PFS Rate 6 months ([2]; 6 months)	Median PFS ([2]; Progression Free Survival, randomization to objective progression or death, KLTi 30 g/day IV Days 1-5, 8-12, 15-19 with gemcitabine 1000 mg/m^2 Days 1, 8, 15 of 28-day cycle)	CR + PR (%) [2, 5]	Complete Response (CR) [2, 5]	Partial Response (PR) [2, 5]	Progressive Disease (PD) [2, 5]	Complete Response (CR) [2, 6]	Partial Response (PR) [2, 6]	Progressive Disease (PD) [2, 6]	1-year survival rate [3]	median survival [3]	median overall survival [4]
O=c1[nH]cc(F)c(=O)[nH]1 [5-FU, fluorouracil]	2%																	
Nc1ccn([C@@H]2O[C@H](CO)[C@@H](O)C2(F)F)c(=O)n1 [Gemcidabine, gemcitabine]	18%	22%	75%	8.3%	25%	25%	8.3%	57.5 days	1 (11.1%)	0 (0%)	1 (11.1%)	6 (66.7%)	0 (0%)	1 (7.7%)	6 (46.2%)	17%	5.9 months	6.8 months

From patent US20140370129A1, “DOSING REGIMEN AND METHOD FOR TREATING CANCER USING A COIX SEED OIL EMULSION” (Zhejiang Kanglaite Group Co., Ltd., priority 2013, published 2014)
